What was measured:
PfCDPK4 = PfCDPK4 (Plasmodium falciparum (isolate 3D7), UniProt Q8IBS5); experiment: biochemical; details: read-out: PfCDPK4 (% inhibition @ 3 uM)
PfCDPK1 = PfCDPK1 (Plasmodium falciparum (isolate 3D7), UniProt P62344); experiment: biochemical; details: read-out: PfCDPK1 (% inhibition @ 3 uM)
CpCDPK1 = CpCDPK1 (Cryptosporidium parvum (strain Iowa II), UniProt A3FQ16); type: biochemical
TgCDPK1 = TgCDPK1 (Toxoplasma gondii, UniProt Q9BJF5); type: biochemical
P. berghei = test system: P. berghei; set-up: species or system Plasmodium berghei; details: in vivo
P. falciparum = P. falciparum NF54 gametocyte exflagellation with compound in blood; type: cell-based, Plasmodium falciparum; details: Plasmodium falciparum, read-out: Parasite Proliferation Assay EC50 P. falciparum Exflaggelation
C. parvum = experiment: Immunosuppressed (SCID-beige) mouse C. parvum model, stool qRT-PCR; type: in vivo, Cryptosporidium parvum; details: oral gavage once a day, days 3-7 and 10-14; 29 and 150 50 mg/kg/day, Paromomycin 2 g/kg/day
Method: Shown are mean of the parasite numbers detected in 25 mg of stool from each mouse, by qRT-PCR.

TgCDPK1, sequence (Q9BJF5 1-507): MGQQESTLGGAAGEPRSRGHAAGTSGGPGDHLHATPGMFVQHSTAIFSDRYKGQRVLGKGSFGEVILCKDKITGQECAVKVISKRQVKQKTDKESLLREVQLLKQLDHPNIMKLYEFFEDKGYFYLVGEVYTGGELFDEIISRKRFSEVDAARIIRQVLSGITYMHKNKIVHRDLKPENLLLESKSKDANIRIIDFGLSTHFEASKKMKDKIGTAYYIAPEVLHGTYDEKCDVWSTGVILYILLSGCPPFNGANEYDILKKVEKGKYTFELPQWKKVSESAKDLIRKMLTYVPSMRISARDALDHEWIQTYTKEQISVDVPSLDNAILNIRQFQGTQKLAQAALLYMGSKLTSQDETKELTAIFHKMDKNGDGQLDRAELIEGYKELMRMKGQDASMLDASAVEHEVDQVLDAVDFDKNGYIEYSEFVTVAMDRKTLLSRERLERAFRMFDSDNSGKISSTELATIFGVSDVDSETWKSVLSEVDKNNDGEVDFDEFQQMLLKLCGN
CpCDPK1, sequence (A3FQ16 1-538): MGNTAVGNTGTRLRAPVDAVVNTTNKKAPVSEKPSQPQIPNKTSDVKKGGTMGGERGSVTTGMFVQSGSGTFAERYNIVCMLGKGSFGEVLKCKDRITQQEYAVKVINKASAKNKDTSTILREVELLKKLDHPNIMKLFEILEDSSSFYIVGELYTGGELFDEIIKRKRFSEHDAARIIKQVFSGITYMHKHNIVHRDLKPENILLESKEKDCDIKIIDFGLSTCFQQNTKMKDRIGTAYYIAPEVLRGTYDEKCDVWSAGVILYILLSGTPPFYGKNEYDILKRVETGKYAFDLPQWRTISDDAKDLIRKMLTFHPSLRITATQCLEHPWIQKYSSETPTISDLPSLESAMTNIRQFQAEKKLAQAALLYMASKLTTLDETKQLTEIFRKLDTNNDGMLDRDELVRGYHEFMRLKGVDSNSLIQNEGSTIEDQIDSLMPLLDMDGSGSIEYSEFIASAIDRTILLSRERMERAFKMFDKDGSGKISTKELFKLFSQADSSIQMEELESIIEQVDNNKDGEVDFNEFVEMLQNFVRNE

Row | SMILES | inhibition at 3 µM (PfCDPK4) | inhibition at 3 µM (PfCDPK1) | other results
1 | COc1ccc(-c2nn(C(C)C)c3ncnc(N)c23)cc1OC [Compound 7k, 3-(3,4-dimethoxyphenyl)-1-isopropyl-1H-pyrazolo[3,4-d]pyrimidin-4-amine] | 43% | 93% | inhibition of CpCDPK1 (in words) (CpCDPK1): potent against both enzymes
2 | CC(C)c1ccc(-c2nn(C(C)C)c3ncnc(N)c23)cc1 [Compound 7d, 1-isopropyl-3-(4-isopropylphenyl)-1H-pyrazolo[3,4-d]pyrimidin-4-amine] | 80% | 90% | relative potency TgCDPK1 versus CpCDPK1 (in words) (TgCDPK1): more potent against TgCDPK1 than CpCDPK1
3 | CC(C)n1nc(-c2cccc(Cl)c2)c2c(N)ncnc21 [Compound 7b, 3-(3-chlorophenyl)-1-isopropyl-1H-pyrazolo[3,4-d]pyrimidin-4-amine] | 85% | 72% | relative potency TgCDPK1 versus CpCDPK1 (in words) (TgCDPK1): more potent against TgCDPK1 than CpCDPK1
4 | Cc1cc(-c2nn(C(C)C)c3ncnc(N)c23)ccc1F [Compound 7i, 3-(4-fluoro-3-methylphenyl)-1-isopropyl-1H-pyrazolo[3,4-d]pyrimidin-4-amine] | 79% | 79% | inhibition of CpCDPK1 (in words) (CpCDPK1): potent against both enzymes
5 | CC(C)n1nc(-c2cnc3ccccc3c2)c2c(N)ncnc21 [Compound 7t, 1-isopropyl-3-(quinolin-3-yl)-1H-pyrazolo[3,4-d]pyrimidin-4-amine] | 83% | 65% | inhibition of TgCDPK1 (in words) (TgCDPK1): potent inhibitors of both enzymes; inhibition of CpCDPK1 (in words) (CpCDPK1): potent inhibitors of both enzymes
6 | COc1cc(-c2nn(C(C)C)c3ncnc(N)c23)cc(OC)c1OC [Compound 7l, 1-isopropyl-3-(3,4,5-trimethoxyphenyl)-1H-pyrazolo[3,4-d]pyrimidin-4-amine] |  |  | relative potency TgCDPK1 versus CpCDPK1 (in words) (TgCDPK1): equipotent or slightly selective for CpCDPK1
7 | CC(C)n1nc(-c2ccc(Cl)cc2)c2c(N)ncnc21 [Compound 7a, 3-(4-chlorophenyl)-1-isopropyl-1H-pyrazolo[3,4-d]pyrimidin-4-amine] | 86% | 97% | relative potency TgCDPK1 versus CpCDPK1 (in words) (TgCDPK1): more potent against TgCDPK1 than CpCDPK1
8 | CC(C)n1nc(-c2ccc(Cl)c(Cl)c2)c2c(N)ncnc21 [Compound 7c, 3-(3,4-dichlorophenyl)-1-isopropyl-1H-pyrazolo[3,4-d]pyrimidin-4-amine] | 97% | 93% | inhibition of CpCDPK1 (in words) (CpCDPK1): potent against both enzymes
9 | CC(C)(C)n1nc(-c2ccc3ccccc3c2)c2c(N)ncnc21 [NA-PP2, reference compound] |  |  | formation of oocysts in A. stephensi (P. berghei): hundreds of oocysts per mosquito
10 | CCOc1ccc2cc(-c3nn(CC4CCN(C)CC4)c4ncnc(N)c34)ccc2c1 [Compound 150, 3-(6-ethoxynaphthalen-2-yl)-1-((1-methylpiperidin-4-yl)methyl)-1H-pyrazolo[3,4-d]pyrimidin-4-amine] |  |  | EC50 (P. falciparum): 50 nM; parasites in stool at the end of treatment (C. parvum): not detected; rebound of parasite burden after treatment (C. parvum): not
11 | COc1ccc(-c2nn(C(C)C)c3ncnc(N)c23)cc1C [Compound 7m, 1-isopropyl-3-(4-methoxy-3-methylphenyl)-1H-pyrazolo[3,4-d]pyrimidin-4-amine] | 85% | 77% | inhibition of CpCDPK1 (in words) (CpCDPK1): potent against both enzymes
12 | CSc1cccc(-c2nn(C(C)C)c3ncnc(N)c23)c1 [Compound 7ab, 1-isopropyl-3-(3-(methylthio)phenyl)-1H-pyrazolo[3,4-d]pyrimidin-4-amine] |  |  | relative potency TgCDPK1 versus CpCDPK1 (in words) (TgCDPK1): more potent against TgCDPK1 than CpCDPK1
13 | NC[C@@H]1O[C@H](O[C@H]2[C@@H](O)[C@H](O[C@@H]3[C@@H](O)[C@H](N)C[C@H](N)[C@H]3O[C@H]3O[C@H](CO)[C@@H](O)[C@H](O)[C@H]3N)O[C@@H]2CO)[C@H](N)[C@@H](O)[C@@H]1O [Paromomycin, reference compound] |  |  | parasites in stool at the end of treatment (C. parvum): not detected; rebound of parasite burden after treatment (C. parvum): quickly rebounded
14 | CC(C)(C)n1nc(-c2ccc(-c3ccccc3)cc2)c2c(N)ncnc21 [Compound 136] | 16% | 90% | 
15 | CCCOc1ccc2cc(-c3nn(C(C)C)c4ncnc(N)c34)ccc2c1 [Compound 12, 1-isopropyl-3-(6-propoxynaphthalen-2-yl)-1H-pyrazolo[3,4-d]pyrimidin-4-amine] | 91% | 95% | 
16 | CS(=O)(=O)N1CCC(CCn2nc(Cc3cccc4ccccc34)c3c(N)ncnc32)CC1 [Compound 5r, 1-(2-(1-(methylsulfonyl)piperidin-4-yl)ethyl)-3-(naphthalen-1-ylmethyl)-1H-pyrazolo[3,4-d]pyrimidin-4-amine] | 22% | 55% | 

Row | SMILES | inhibition at 3 µM (PfCDPK4) | inhibition at 3 µM (PfCDPK1) | other results
17 | CC(C)n1nc(-c2ccc3cc(OCc4ccncc4)ccc3c2)c2c(N)ncnc21 [Compound 55, 1-isopropyl-3-(6-(pyridin-4-ylmethoxy)naphthalen-2-yl)-1H-pyrazolo[3,4-d]pyrimidin-4-amine] | 94% | 100% | 
18 | CC(=O)N1CCC(Cn2nc(Cc3cccc4ccccc34)c3c(N)ncnc32)CC1 [Compound 5k, 1-(4-((4-amino-3-(naphthalen-1-ylmethyl)-1H-pyrazolo[3,4-d]pyrimidin-1-yl)methyl)piperidin-1-yl)ethanone] | 28% | 69% | 
19 | CC(C)n1nc(-c2cccc3ccccc23)c2c(N)ncnc21 [Compound 7o, 1-isopropyl-3-(naphthalen-1-yl)-1H-pyrazolo[3,4-d]pyrimidin-4-amine] | 79% | 58% | 
20 | Nc1ncnc2c1c(-c1cnc3ccccc3c1)nn2CC1CCNCC1 [Compound 30, 1-(piperidin-4-ylmethyl)-3-(quinolin-3-yl)-1H-pyrazolo[3,4-d]pyrimidin-4-amine] | 86% | 82% | 
21 | COc1cc2ccccc2cc1-c1nn(C(C)C)c2ncnc(N)c12 [Compound 7s, 1-isopropyl-3-(3-methoxynaphthalen-2-yl)-1H-pyrazolo[3,4-d]pyrimidin-4-amine] | 20% | 53% | 
22 | C=CCOc1ccc2cc(-c3nn(C(C)C)c4ncnc(N)c34)ccc2c1 [Compound 41, 3-(6-(allyloxy)naphthalen-2-yl)-1-isopropyl-1H-pyrazolo[3,4-d]pyrimidin-4-amine] | 98% | 101% | 
23 | CC(C)(C)n1nc(Cc2cccc3ccccc23)c2c(N)ncnc21 [Compound 5d, 1-tert-butyl-3-(naphthalen-1-ylmethyl)-1H-pyrazolo[3,4-d]pyrimidin-4-amine] | 86% | 76% | 
24 | CC(C)(C)n1nc(-c2ccc(NC(=O)C3CCCC3)cc2)c2c(N)ncnc21 [Compound 63, N-(4-(4-amino-1-tert-butyl-1H-pyrazolo[3,4-d]pyrimidin-3-yl)phenyl)cyclopentanecarboxamide] | 96% | 103% | 
25 | CCN1CCC(Cn2nc(Cc3cccc4ccccc34)c3c(N)ncnc32)CC1 [Compound 5n, 1-((1-ethylpiperidin-4-yl)methyl)-3-(naphthalen-1-ylmethyl)-1H-pyrazolo[3,4-d]pyrimidin-4-amine] | 27% | 49% | 
26 | CC(C)n1nc(-c2ccc3cc(OCc4cc(F)cc(Cl)c4)ccc3c2)c2c(N)ncnc21 [Compound 52, 3-(6-(3-chloro-5-fluorobenzyloxy)naphthalen-2-yl)-1-isopropyl-1H-pyrazolo[3,4-d]pyrimidin-4-amine] | 62% | 93% | 
27 | Nc1ncnc2c1c(-c1ccc3cc(O)ccc3c1)nn2CC1CCNCC1 [Compound 119] | 101% | 102% | 
28 | CC(C)(C)n1nc(Br)c2c(N)ncnc21 [Compound 129] | 9% | 79% | 
29 | N#Cc1cccc(-c2ccc(-c3nn(CC4CCNCC4)c4ncnc(N)c34)cc2)c1 [Compound 74, 4′-(4-amino-1-(piperidin-4-ylmethyl)-1H-pyrazolo[3,4-d]pyrimidin-3-yl)biphenyl-3-carbonitrile] | 68% | 97% | 
30 | CC(C)(C)n1nc(-c2ccc(NC(=O)C3CCCCC3)cc2)c2c(N)ncnc21 [Compound 64, N-(4-(4-amino-1-tert-butyl-1H-pyrazolo[3,4-d]pyrimidin-3-yl)phenyl)cyclohexanecarboxamide] | 66% | 101% | 
31 | CCOc1ccc2cc(-c3nc(C(C)(C)C)n4ccnc(N)c34)ccc2c1 [Compound 69, 3-tert-butyl-1-(6-ethoxynaphthalen-2-yl)imidazo[1,5-a]pyrazin-8-amine] | 97% | 101% | 
32 | CCCCOc1ccc2cc(-c3nn(C(C)C)c4ncnc(N)c34)ccc2c1 [Compound 42, 3-(6-butoxynaphthalen-2-yl)-1-isopropyl-1H-pyrazolo[3,4-d]pyrimidin-4-amine] | 94% | 101% | 
